Measurements as given in PMC9120017, “Inhibition mechanism of the chloride channel TMEM16A by the pore blocker 1PBC” (Nature Communications, 2022).
Like-named read-outs stand apart in the source and are kept apart here.

Target: T1, mouse TMEM16A mutant Q649A (Mus musculus, UniProt Q8BHY3, Q649A)
T1 construct: expressed in transfected cells; host or cells: HEK293T
T1 sequence (Q8BHY3 1-960 Q649A): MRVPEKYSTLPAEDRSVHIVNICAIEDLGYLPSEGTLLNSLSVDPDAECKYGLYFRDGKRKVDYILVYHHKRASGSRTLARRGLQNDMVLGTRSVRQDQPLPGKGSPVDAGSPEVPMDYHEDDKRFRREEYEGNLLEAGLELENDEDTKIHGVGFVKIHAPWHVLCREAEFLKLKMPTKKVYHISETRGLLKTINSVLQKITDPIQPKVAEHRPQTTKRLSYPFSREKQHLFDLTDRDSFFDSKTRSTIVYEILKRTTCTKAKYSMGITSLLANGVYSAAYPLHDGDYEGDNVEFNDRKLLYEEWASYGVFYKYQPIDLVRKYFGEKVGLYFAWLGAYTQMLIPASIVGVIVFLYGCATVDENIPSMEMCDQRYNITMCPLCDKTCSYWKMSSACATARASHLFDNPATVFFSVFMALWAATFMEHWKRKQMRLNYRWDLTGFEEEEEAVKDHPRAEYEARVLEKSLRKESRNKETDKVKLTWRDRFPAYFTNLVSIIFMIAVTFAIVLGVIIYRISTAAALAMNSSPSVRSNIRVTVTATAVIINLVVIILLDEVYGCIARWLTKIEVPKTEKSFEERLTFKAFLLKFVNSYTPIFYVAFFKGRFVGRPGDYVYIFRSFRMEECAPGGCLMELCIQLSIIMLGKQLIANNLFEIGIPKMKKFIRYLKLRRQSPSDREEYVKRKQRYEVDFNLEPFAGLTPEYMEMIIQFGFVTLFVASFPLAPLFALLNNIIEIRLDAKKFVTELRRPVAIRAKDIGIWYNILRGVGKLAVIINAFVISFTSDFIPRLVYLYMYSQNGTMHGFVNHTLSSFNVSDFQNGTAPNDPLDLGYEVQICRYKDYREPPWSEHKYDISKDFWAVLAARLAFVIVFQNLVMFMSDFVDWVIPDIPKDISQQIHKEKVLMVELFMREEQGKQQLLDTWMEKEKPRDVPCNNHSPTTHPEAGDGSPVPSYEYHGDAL
Assay: Inside-out patch recording of 1PBC block, constitutively active mutant Q649A
Type: cell-based
Details: for remaining activity at 3 µM: 3 µM 1PBC; for remaining activity at 10 µM: 10 µM 1PBC; for remaining activity at 30 µM: 30 µM 1PBC
Experimental: HEK293T cells (ATCC CRL-1573) were maintained in Dulbecco’s modified Eagle’s medium (DMEM; Sigma-Aldrich) supplemented with 10 U ml^−1 penicillin, 0.1 mg ml^−1 streptomycin (Sigma-Aldrich), 2 mM L-glutamine (Sigma-Aldrich), and 10% FBS (Sigma-Aldrich) in a humidified atmosphere containing 5% CO2 at 37 °C. HEK293S GnTI^− cells (ATCC CRL-3022) were maintained in HyClone HyCell TransFx-H medium (GE Healthcare) supplemented with 10 U ml^−1 penicillin, 0.1 mg ml^−1 streptomycin, 4 mM L-glutamine, 0.15% poloxamer 188 (Sigma-Aldrich), and 1% FBS in an atmosphere containing 5% CO2 at 185 rpm at 37 °C. The ac splice variant of mouse TMEM16A (UniProt ID: Q8BHY3), mouse TMEM16B (UniProt ID: Q8CFW1), or mouse TMEM16F (UniProt ID: Q6P9J9) bearing a 3C cleavage site, a Venus YFP, a Myc tag, and a Streptavidin-binding peptide (SBP) downstream of the open reading frame in a modified pcDNA3.1 vector (Invitrogen) were used as described previously[21],[31]. Mutations were introduced using a modified QuikChange method[58] and were verified by sequencing.
HEK293T cells were transfected with 3–4 μg DNA per 6 cm Petri dish using the calcium phosphate co-precipitation method and were used within 24–96 h after transfection. Recordings were performed on inside-out patches excised from HEK293T cells expressing the construct of interest. Patch pipettes were pulled from borosilicate glass capillaries (O.D. 1.5 mm, I.D. 0.86 mm, Sutter Instrument) and were fire-polished with a microforge (Narishige) before use. Pipette resistance was typically 3–8 MΩ when filled with the recording solutions detailed below. Seal resistance was typically 4 GΩ or higher. Voltage-clamp recordings were made using Axopatch 200B, Digidata 1550, and Clampex 10.7 (Molecular Devices). Analog signals were filtered with the in-built 4-pole Bessel filter at 10 kHz and were digitized at 20 kHz. Solution exchange was achieved using a gravity-fed system through a theta glass pipette mounted on an ultra-fast piezo-driven stepper (Siskiyou). […] All recordings were performed at 20 °C.
A symmetrical ionic condition was used throughout. Stock solution with Ca^2+-EGTA contained 150 mM NaCl, 5.99 mM Ca(OH)2, 5 mM EGTA, and 10 mM HEPES at pH 7.40. Stock solution with EGTA contained 150 mM NaCl, 5 mM EGTA, and 10 mM HEPES at pH 7.40. Free Ca^2+ concentrations were adjusted by mixing the stock solutions at the required ratios calculated using the WEBMAXC program (http://web.stanford.edu/~cpatton/webmaxcS.htm). Patch pipettes were filled with the stock solution with Ca^2+-EGTA, which has a free Ca^2+ concentration of 1 mM. 1PBC (ChemBridge) stock was reconstituted in anhydrous DMSO (Sigma-Aldrich) at 100 mM and stored at −20 °C. Working solutions with 1PBC were prepared by serial dilution. Unless otherwise stated, experiments were performed at a saturating Ca^2+ concentration as shown in Supplementary Table 1 and the primary data were corrected for current rundown as described previously[21],[25].
Concentration-response relations, obtained from the ratio of the I-V plots before and after the application of the blocker, were fitted to the Hill equation,1 I/Imax=1/1+IC50/[blocker]^h where I/Imax is the normalized current responses, IC50 defines the concentration at which inhibition is at its half-maximum, and h is the Hill coefficient.

[1] = 0 mV, 2 µM Ca2+, read-out: I/Imax
[2] = 0 mV, zero Ca2+, read-out: I/Imax

SMILES: N#Cc1c(C(F)(F)F)cc(O)n2c1nc1ccccc12 [1PBC]
- I/Imax_+80mV (0Ca, 3 μM 1PBC): 0.8995
- I/Imax_-80mV (0Ca, 3 μM 1PBC): 0.9942
- I/Imax_+80mV (0Ca, 10 μM 1PBC): 0.7384
- I/Imax_-80mV (0Ca, 10 μM 1PBC): 0.9446
- I/Imax_+80mV (0Ca, 30 μM 1PBC): 0.483
- I/Imax_-80mV (0Ca, 30 μM 1PBC): 0.815
- I/Imax_+80mV (0Ca, 100 μM 1PBC): 0.2577
- I/Imax_-80mV (0Ca, 100 μM 1PBC): 0.578
- remaining activity at 1 µM (1 µM 1PBC, 0 mV, 2 µM Ca2+, read-out: I/Imax): 80%
- remaining activity at 3 µM [1]: 57.9%
- remaining activity at 3 µM [2]: 92.9%
- remaining activity at 10 µM [1]: 31.4%
- remaining activity at 10 µM [2]: 84.7%
- remaining activity at 30 µM [1]: 13.7%
- remaining activity at 30 µM [2]: 63.9%
- remaining activity at 100 µM (100 µM 1PBC, 0 mV, zero Ca2+, read-out: I/Imax): 39.9%
- I/Imax_+80mV (Ca, 1 μM 1PBC): 0.7635
- I/Imax_-80mV (Ca, 1 μM 1PBC): 0.9086
- I/Imax_+80mV (Ca, 3 μM 1PBC): 0.5067
- I/Imax_-80mV (Ca, 3 μM 1PBC): 0.7508
- I/Imax_+80mV (Ca, 10 μM 1PBC): 0.2578
- I/Imax_-80mV (Ca, 10 μM 1PBC): 0.4875
- I/Imax_+80mV (Ca, 30 μM 1PBC): 0.09866
- I/Imax_-80mV (Ca, 30 μM 1PBC): 0.2347
- Decrease in potency of block, Ca2+-free form vs Ca2+-bound state (zero vs 2 µM Ca2+): about ten-fold
